Several values for one entry are separate records, joined by “and”; a condition that tells them apart may be missing. Equal entries are not always repeated.
Columns and labels:
[1] = molar heat capacity at constant pressure; conditions: Liquid, Large sample (1 g) DSC
[2] = molar heat capacity at constant pressure; xn = mol fraction of the nth substance listed; conditions: 100 kPa, Liquid, Large sample (1 g) DSC, x1 = 0.38

CC [ethane]
[1]
Conditions	molar heat capacity at constant pressure [J/K/mol]
108.15 K, 1050 kPa	67.9
108.15 K, 2020 kPa	67.87
108.15 K, 4290 kPa	67.78
118.15 K, 1060 kPa	68.26
118.15 K, 2030 kPa	67.63
118.15 K, 4290 kPa	68.95
128.15 K, 4310 kPa	68.65
143.15 K, 4080 kPa	68.62
153.15 K, 4070 kPa	69.94
163.15 K, 4050 kPa	70.84
188.15 K, 1120 kPa	73.46
188.15 K, 4310 kPa	72.41
228.15 K, 1170 kPa	81.04
228.15 K, 4320 kPa	80.07
238.15 K, 1210 kPa	83.71
238.15 K, 4330 kPa	82.72

CCCCCCC [heptane]
[1], 100 kPa
Conditions	molar heat capacity at constant pressure
228.15 K	202.31 J/K/mol and 201.51 J/K/mol
238.15 K	206.22 J/K/mol and 205.11 J/K/mol
303.15 K	225.96 J/K/mol and 225.25 J/K/mol
313.15 K	229.16 J/K/mol and 230.87 J/K/mol

C [methane]
[1]
Conditions	molar heat capacity at constant pressure [J/K/mol]
108.15 K, 4230 kPa	54.4
108.15 K, 6300 kPa	54.11
118.15 K, 4270 kPa	55.54
118.15 K, 6350 kPa	55.11
128.15 K, 4330 kPa	57.03
128.15 K, 6400 kPa	56.66
143.15 K, 4350 kPa	59.37
153.15 K, 4340 kPa	63.24
153.15 K, 6340 kPa	60.98
163.15 K, 4390 kPa	67.7
163.15 K, 6470 kPa	64.51
173.15 K, 4380 kPa	77.87
173.15 K, 6450 kPa	70.97

CCC [propane]
[1]
Conditions	molar heat capacity at constant pressure [J/K/mol]
108.15 K, 1160 kPa	84.97
108.15 K, 3680 kPa	86.69
108.15 K, 5160 kPa	86.65
108.15 K, 5330 kPa	84.8
118.15 K, 1170 kPa	84.75
118.15 K, 3650 kPa	87.09
118.15 K, 5180 kPa	87.04
118.15 K, 5430 kPa	85.46
128.15 K, 1180 kPa	85.28
128.15 K, 3640 kPa	86.65
128.15 K, 3670 kPa	86.3
128.15 K, 5190 kPa	86.56
128.15 K, 5430 kPa	85.55
143.15 K, 1130 kPa	86.43
143.15 K, 3690 kPa	86.69
143.15 K, 5180 kPa	86.56
153.15 K, 1190 kPa	87.62
153.15 K, 5200 kPa	88.68
163.15 K, 1170 kPa	87.97
163.15 K, 5210 kPa	89.34
188.15 K, 1190 kPa	91.15
188.15 K, 5220 kPa	91.1
228.15 K, 1150 kPa	98.73
228.15 K, 3670 kPa	98.42
228.15 K, 5220 kPa	98.11
238.15 K, 1110 kPa	101.24
238.15 K, 3680 kPa	100.71
238.15 K, 5220 kPa	100.63
248.15 K, 1160 kPa	103.58
248.15 K, 3670 kPa	102.17
248.15 K, 5190 kPa	101.46
258.15 K, 1160 kPa	105.65
258.15 K, 3680 kPa	104.11
258.15 K, 5220 kPa	103.76

Cc1ccccc1 [toluene]
[1], 100 kPa
Conditions	molar heat capacity at constant pressure
228.15 K	138.39 J/K/mol and 139.13 J/K/mol
238.15 K	140.79 J/K/mol and 140.97 J/K/mol
303.15 K	159.03 J/K/mol and 157.65 J/K/mol
313.15 K	162.35 J/K/mol and 161.98 J/K/mol

Cc1ccccc1 [toluene] + CCCCCCC
[2]
Conditions	molar heat capacity at constant pressure [J/K/mol]
228.15 K	166.3
238.15 K	168.05
303.15 K	185.24
313.15 K	189.52
